Data as given in patent US20240102991A1, “Synthetic Fluorescent Protein Biosensors and Use Thereof in Drug Screening Methods” (The Regents of the University of Colorado, a body corporate, priority 2017, published 2024).

System: biosensor expressing cells (HEK293T)
Format: cell-based, human

Substance: Cholera Toxin
- biosensors that respond in some way to the single drug treatment: > 80%
